Consider one compound from patent US10266544B2, “Aryl substituted aminomethyl spectinomycin analogs as antibacterial agents” (ST. JUDE CHILDREN'S RESEARCH HOSPITAL, INC., priority 2013, dated 2019).

By MIC is commonly meant the least concentration at which growth counts as inhibited.

Where a name gives a salt, the structure may show the parent alone.

Assay [1] has as its system Enterococcus faecalis (ATCC 33186). The assay can be described thus: MIC determination, microbroth dilution. The class given is cell-based. The following applies: ATCC33186; Enterococcus faecalis (ATCC 33186); read-out: MIC E.f. (Broth dilution looks for growth in wells or tubes with falling amounts of substance.)
In the next assay the test system is S. pneumoniae D39x. The experiment in a line: Mouse challenge, mouse model of lung infection. The class given is in vivo. The following applies: p<0.02. As for the experimental part:
Mice were treated with a 5 mg/kg dose b.i.d. of spectinomycin (indicated as “SPC” in the figure) or compound 2 (the compound number refers to the compound number and associated structure shown in Table 1), or vehicle. (Panel B) The bacterial burden of mice at 18 hours post-challenge with S. pneumoniae D39x. (Panel C) Representative bioluminescent images of mice at 72 hours post challenge.
All experimental animal protocols were approved by the St. Jude Children's Research Hospital Institutional Animal Care and Use Committee. Seven week old, female BalbC/J mice (Jackson Labs, Bar Harbor, Me.) we utilized in these studies. All mice were maintained in BSL2 facilities and all experiments were done under inhaled isoflurane (2.5%). Bacteria (strain D39x) were introduced by intranasal administration of 2×10^7 CFU in 25 μL PBS. Mice received no treatment, plasmalyte A (vehicle control), ampicillin (100 mg/kg), spectinomycin (50, 25, 5 mg/kg) or the respective compounds (50, 25, 5 mg/kg) at dosages indicated. Antibiotics were administered in a volume of 100 μL by subcutaneous […] starting at 18 hours post challenge, a time point when the mice have developed pneumonia and bacteria have translocated into the bloodstream. Mice were subsequently dosed every 12 hours until 96 hours post challenge. Mice were monitored daily for signs of infection and weight loss. Differences in time to death were compared via Kaplan-Meier survival estimates. Bacterial density in blood was quantified at 24, 48, 72, and 96 hours post infection via blood collection, serial dilution, and plating. Groups were then compared by Mann-Whitney to determine statistical significance. At 8 days following challenge, surviving mice were euthanized and bacterial loads in lungs determined by homogenization followed by serial dilution and plating. In all instances, surviving mice had completely cleared bacteria from both the lungs and the bloodstream by this time point.
Compound 2 was tested for anti-pneumococcal activity in mice as described above. […]

For the compound `CN[C@@H]1[C@H](O)[C@H](NC)[C@H]2O[C@]3(O)[C@H](O[C@@H]2[C@H]1O)O[C@H](C)C[C@@]3(O)CNCc1ccc(F)cc1` [compound 2, 3′-(R)-3′-[(4-fluoro)benzylaminomethyl)]dihydrospectinomycin Trihydrochloride], the minimal inhibitory concentration (MIC) in assay [1] lay within 12.5 to 25 mg/L. Besides, the survival entry in the assay on S. pneumoniae D39x (5 mg/Kg BID subcutaneous, from 18 hours post intranasal challenge, vs vehicle and spectinomycin) is “significantly improved survival”. The “bacterial burden in the blood” value in the assay with S. pneumoniae D39x (48 hours post-challenge, vs spectinomycin and vehicle) was “reduced significantly”.
